Measurements from US20260053811A1, “METHODS OF TREATING HYPERTENSION IN OBESE SUBJECTS” (Mineralys Therapeutics, Inc., priority 2022, published 2026).

System: hypertensive subjects
Assay: 24-hour ambulatory blood pressure monitoring (ABPM), incl. nighttime dip
Assay type: in vivo, human
Details: Part 1
Protocol: Ambulatory blood pressure monitoring was accomplished with an ambulatory blood pressure monitoring device that consists of a blood pressure cuff worn on a subject's arm attached to a small recording device that is typically attached to the subject's belt or waistband.
The ABPM device is worn for 24 hours. Throughout that period, the device records the subject's blood pressure at regular intervals, during the subject's routine daily activities and while they are sleeping. The ABPM thus provides a complete record of the subject's blood pressure over a 24-hour period.
24-hour ABPM was measured in the clinic at baseline and Study Week 7. If, for any reason, the ABPM procedure was deemed a failure at the end of Study Week 7, it may have been repeated at Study Week 8 and therefore no imputation was employed regardless of use of rescue medications. Additionally, ABPM was also collected at the end of Study Week 4 in Part 2. If a repeat test was performed, it supersedes the original test results for that visit.
Specific derived variables based on ABPM measurements include mean 24-hour, mean Daytime, and mean Nighttime of SBP, DBP, and heart rate.
Change from baseline to Week 7 in 24-hour mean SBP (and DBP) based on ABPM will be analyzed using an ANCOVA with a term for treatment group and a baseline mean 24-hour value as a covariate.
The nighttime dip is defined as
100%×(mean daytime SBP−mean nighttime SBP)/mean daytime SBP
It is expressed as a percentage and is summarized by treatment group and visit using descriptive statistics. In addition, the number and percentage of subjects with nighttime dip in each of the dipper categories (Bloomfield & Park, 2015) is presented by treatment group and visit. The categories are: • (a) <10% • (b) 10-20% inclusive • (c) >20%
Secondary endpoints of this study were: • (a) Change in 24-hour ambulatory blood pressure monitoring (ABPM) parameters (systolic and diastolic) from baseline to the end of Study Week 7. • (b) Change in office-measured SBP from baseline to the end of Study Weeks 1, 2, 3, 4, 5, 6, and 7. • (c) Change in office-measured diastolic blood pressure (DBP) from baseline to the end of Study Weeks 1, 2, 3, 4, 5, 6, 7, and 8. • (d) Proportion of subjects who achieve office-measured BP of ≤130/80 mm Hg by the end of Study Week 8.

[1] = 25 mg BID, End of Treatment, FAS post-hoc

**Q.** Which results are given for CC(=O)N[C@H]1CC[C@H](NC(=O)CN2CCN(c3nncc(-c4ccc(C)cc4)n3)CC2)CC1 [Compound A HBr]?
**A.** Daytime Mean SBP (ABPM), Mean (SD) (12.5 mg QD, EoT, FAS): 141.13 (15.62) mmHg; Nighttime Mean DBP (ABPM), Mean (SD) (12.5 mg QD, EoT, FAS): 74.29 (9.59) mmHg; Nighttime Mean SBP (ABPM), Mean (SD) (12.5 mg QD, EoT, FAS): 132.00 (18.11) mmHg; Subjects with nighttime dip 10-20% in 24-hour systolic ABPM (12.5 mg QD, EoT, FAS): 5 (35.7) n (%); Subjects with nighttime dip <10% in 24-hour systolic ABPM (12.5 mg QD, EoT, FAS): 9 (64.3) n (%); Subjects with nighttime dip >20% in 24-hour systolic ABPM (12.5 mg QD, EoT, FAS): 0 n (%); 24-hr Mean DBP (ABPM) CFB to EoT, Mean (SD) (12.5 mg QD, FAS): −2.27 (8.35) mmHg; 24-hr Mean MAP (ABPM) CFB to EoT, Mean (SD) (12.5 mg QD, FAS): −3.73 (12.21) mmHg; 24-hr Mean SBP (ABPM) CFB to EoT, Mean (SD) (12.5 mg QD, FAS): −5.20 (16.55) mmHg; Daytime Mean DBP (ABPM) CFB to EoT, Mean (SD) (12.5 mg QD, FAS): −2.60 (8.43) mmHg; Daytime Mean SBP (ABPM) CFB to EoT, Mean (SD) (12.5 mg QD, FAS): −4.80 (15.10) mmHg; Nighttime Mean DBP (ABPM) CFB to EoT, Mean (SD) (12.5 mg QD, FAS): −3.21 (9.55) mmHg; Nighttime Mean SBP (ABPM) CFB to EoT, Mean (SD) (12.5 mg QD, FAS): −5.43 (20.36) mmHg; LSM Δ with Placebo, 24-hr DBP (ABPM, ANCOVA) [1]: −5.13 mmHg; LSM Δ with Placebo, 24-hr Mean MAP (ABPM, ANCOVA) [1]: −6.68 mmHg; LSM Δ with Placebo, 24-hr SBP (ABPM, ANCOVA) [1]: −8.04 mmHg; LSM Δ with Placebo, Daytime Mean DBP (ABPM, ANCOVA) [1]: −5.64 mmHg; LSM Δ with Placebo, Daytime Mean SBP (ABPM, ANCOVA) [1]: −8.76 mmHg; LSM Δ with Placebo, Mean Central DBP (ABPM, ANCOVA) [1]: −7.36 mmHg; LSM Δ with Placebo, Mean Central Mean BP (ABPM, ANCOVA) [1]: −8.87 mmHg; LSM Δ with Placebo, Mean Central SBP (ABPM, ANCOVA) [1]: −10.19 mmHg; LSM Δ with Placebo, Nighttime Mean DBP (ABPM, ANCOVA) [1]: −3.28 mmHg; LSM Δ with Placebo, Nighttime Mean SBP (ABPM, ANCOVA) [1]: −4.66 mmHg; 24-hr Mean DBP (ABPM), Mean (SD) (25 mg BID, EoT, FAS): 76.50 (10.59) mmHg; 24-hr Mean MAP (ABPM), Mean (SD) (25 mg BID, EoT, FAS): 103.10 (10.92) mmHg; 24-hr Mean SBP (ABPM), Mean (SD) (25 mg BID, EoT, FAS): 129.69 (12.57) mmHg; Daytime Mean DBP (ABPM), Mean (SD) (25 mg BID, EoT, FAS): 79.04 (10.41) mmHg; Daytime Mean SBP (ABPM), Mean (SD) (25 mg BID, EoT, FAS): 132.58 (13.62) mmHg; Nighttime Mean DBP (ABPM), Mean (SD) (25 mg BID, EoT, FAS): 71.38 (11.94) mmHg; Nighttime Mean SBP (ABPM), Mean (SD) (25 mg BID, EoT, FAS): 123.92 (12.17) mmHg; Subjects with nighttime dip 10-20% in 24-hour systolic ABPM (25 mg BID, EoT, FAS): 4 (16.7) n (%); Subjects with nighttime dip <10% in 24-hour systolic ABPM (25 mg BID, EoT, FAS): 19 (79.2) n (%); Subjects with nighttime dip >20% in 24-hour systolic ABPM (25 mg BID, EoT, FAS): 1 (4.2) n (%); 24-hr Mean DBP (ABPM) CFB to EoT, Mean (SD) (25 mg BID, FAS): −6.12 (9.77) mmHg; 24-hr Mean MAP (ABPM) CFB to EoT, Mean (SD) (25 mg BID, FAS): −7.42 (12.49) mmHg; 24-hr Mean SBP (ABPM) CFB to EoT, Mean (SD) (25 mg BID, FAS): −8.73 (15.67) mmHg; Daytime Mean DBP (ABPM) CFB to EoT, Mean (SD) (25 mg BID, FAS): −6.23 (10.43) mmHg; Daytime Mean SBP (ABPM) CFB to EoT, Mean (SD) (25 mg BID, FAS): −9.08 (17.41) mmHg; Nighttime Mean DBP (ABPM) CFB to EoT, Mean (SD) (25 mg BID, FAS): −4.13 (10.86) mmHg; Nighttime Mean SBP (ABPM) CFB to EoT, Mean (SD) (25 mg BID, FAS): −5.96 (15.37) mmHg; LSM Δ with Placebo, 24-hr DBP (ABPM, ANCOVA) (50 mg QD, End of Treatment, FAS post-hoc): −2.74 mmHg
